According to US6706663B2, “Herbicidal 3-heterocyclic substituted benzisothiazole and benzisoxazole compounds” (Wyeth, priority 2000, dated 2004):

Key:
[1] = tested on: TRZAWR (Wheat, Winter, cv Riband); experiment: Preemergence herbicidal evaluation; format: in vivo, Triticum aestivum; settings: rated 4-5 weeks after treatment
Outline: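 Seeds mixed with potting soil were planted atop about one inch of soil, then sprayed with test compound in aqueous acetone. Cups were kept in the greenhouse and rated visually 4–5 weeks after treatment on a 0–9 scale against untreated control.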

[2] = tested on: ECHCG (Echinochloa crus-galli); experiment: Postemergence herbicidal evaluation; format: in vivo, (L.) Beau; settings: postemergence
Outline: (§1)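 Seedlings grown for about two weeks were sprayed postemergence and then kept under standard greenhouse care. Injury was rated visually 4–5 weeks after treatment on a 0–9 scale against untreated controls, and ratings from repeat tests were averaged.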

CYPIR (Cyperus iria) = experiment: Flooded paddy, preemergence weed control; format: in vivo; settings: rated 3-4 weeks after treatment, 0-9 rating scale
Outline: (§2)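 Ratings of 0-9 reflect visual comparison with a control for stand, vigor, deformity, size, chlorosis and overall look. Propagules were placed in shallow silt loam (top 0.5 cm) under a continuous 1.5–3 cm flood and grown in the greenhouse.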

[3] = tested on: IPOHE (Ipomoea hederacea); experiment: Preemergence herbicidal evaluation; format: in vivo, (L.) Jacq.; settings: rated 4-5 weeks after treatment
ORYSAT (Rice, Tebonnet) [4] = experiment: Postemergence herbicidal evaluation; format: in vivo, Oryza sativa, (L.) Tebonnet; settings: postemergence
Outline: as §1

ORYSAT (Rice, Tebonnet) [5] = experiment: Preemergence herbicidal evaluation; format: in vivo, Oryza sativa, (L.) Tebonnet; settings: rated 4-5 weeks after treatment
[6] = tested on: CHEAL (Chenopodium album); experiment: Postemergence herbicidal evaluation; format: in vivo, L.; settings: postemergence
Outline: as §1

[7] = tested on: AMBEL (Ambrosia artemisifolia); experiment: Postemergence herbicidal evaluation; format: in vivo, L.; settings: postemergence
Outline: as §1

[8] = tested on: CASOB (Cassia obtusifolia); experiment: Postemergence herbicidal evaluation; format: in vivo, L.; settings: postemergence
Outline: as §1

[9] = tested on: ECHORC (Echinochloa oryzoides); experiment: Flooded paddy, preemergence weed control; format: in vivo, Echinochloa oryzoides (Ard.) Fritsch.; settings: rated 3-4 weeks after treatment, 0-9 rating scale
Outline: as §2

[10] = tested on: SAGPY (Sagittaria pygmaea); experiment: Flooded paddy, preemergence weed control; format: in vivo, L.; settings: rated 3-4 weeks after treatment, 0-9 rating scale
Outline: as §2

[11] = tested on: GLXMAW (Soybean, Williams); experiment: Preemergence herbicidal evaluation; format: in vivo, Glycine max, (L.) Merr. cv Williams; settings: rated 4-5 weeks after treatment
ZEAMX (Corn, Field) = experiment: Postemergence herbicidal evaluation; format: in vivo, Zea mays, L.; settings: postemergence
Outline: as §1

Row | SMILES | Preemergence herbicidal rating TRZAWR ([1]; Rate 0.0620 kg/ha) | Preemergence herbicidal rating TRZAWR ([1]; Rate 0.1250 kg/ha) | Preemergence herbicidal rating TRZAWR ([1]; Rate 0.2500 kg/ha) | ECHCG herbicidal rating ([2]; rate 0.0320 kg/ha) | ECHCG herbicidal rating ([2]; rate 0.0620 kg/ha) | herbicidal rating, CYPIR (CYPIR (Cyperus iria); rate 0.0080 kg/ha) | herbicidal rating, CYPIR (CYPIR (Cyperus iria); rate 0.0320 kg/ha) | herbicidal rating, CYPIR (CYPIR (Cyperus iria); rate 0.1250 kg/ha) | Preemergence herbicidal rating IPOHE ([3]; Rate 0.0620 kg/ha) | Preemergence herbicidal rating IPOHE ([3]; Rate 0.1250 kg/ha) | Preemergence herbicidal rating IPOHE ([3]; Rate 0.2500 kg/ha) | ORYSAT herbicidal rating (ORYSAT (Rice, Tebonnet) [4]; rate 0.0320 kg/ha) | ORYSAT herbicidal rating (ORYSAT (Rice, Tebonnet) [4]; rate 0.0620 kg/ha) | Preemergence herbicidal rating ORYSAT (ORYSAT (Rice, Tebonnet) [5]; Rate 0.0620 kg/ha) | Preemergence herbicidal rating ORYSAT (ORYSAT (Rice, Tebonnet) [5]; Rate 0.1250 kg/ha) | Preemergence herbicidal rating ORYSAT (ORYSAT (Rice, Tebonnet) [5]; Rate 0.2500 kg/ha) | CHEAL herbicidal rating ([6]; rate 0.0320 kg/ha) | CHEAL herbicidal rating ([6]; rate 0.0620 kg/ha) | AMBEL herbicidal rating ([7]; rate 0.0320 kg/ha) | AMBEL herbicidal rating ([7]; rate 0.0620 kg/ha) | also measured
1 | Cn1c(C(F)(F)F)cc(=O)n(-c2ccc3snc(C4OCC(c5ccccc5)O4)c3c2)c1=O (stereo not drawn) [Compound 78, 1-methyl-3-[3-(4-phenyl-1,3-dioxolan-2-yl)-1,2-benzisothiazol-5-yl]-6-(trifluoromethyl)uracil] | 5.0 | 5.0 | 6.0 | 2.0 | 3.0 | 0.0 | 9.0 | 9.0 | 2.0 | 5.0 | 6.0 | 4.0 | 4.0 | 2.0 | 2.5 | 3.0 | 9.0 | 9.0 | 9.0 | 9.0 | CASOB herbicidal rating ([8]; rate 0.0320 kg/ha): 9.0; CASOB herbicidal rating ([8]; rate 0.0620 kg/ha): 6.0; herbicidal rating, ECHORC ([9]; rate 0.0080 kg/ha): 8.0; herbicidal rating, ECHORC ([9]; rate 0.0320 kg/ha): 9.0; herbicidal rating, ECHORC ([9]; rate 0.1250 kg/ha): 9.0; herbicidal rating, SAGPY ([10]; rate 0.0080 kg/ha): 0.0; herbicidal rating, SAGPY ([10]; rate 0.0320 kg/ha): 1.0; herbicidal rating, SAGPY ([10]; rate 0.1250 kg/ha): 9.0; Preemergence herbicidal rating GLXMAW ([11]; Rate 0.0620 kg/ha): 2.5; Preemergence herbicidal rating GLXMAW ([11]; Rate 0.1250 kg/ha): 6.0; Preemergence herbicidal rating GLXMAW ([11]; Rate 0.2500 kg/ha): 5.0; ZEAMX herbicidal rating (ZEAMX (Corn, Field); rate 0.0320 kg/ha): 3.5; ZEAMX herbicidal rating (ZEAMX (Corn, Field); rate 0.0620 kg/ha): 3.5
2 | Cn1c(C(F)(F)F)cc(=O)n(-c2ccc3snc(-c4sccc4CBr)c3c2)c1=O [Compound 80, 3-[3-[3-(bromomethyl)-2-thienyl]-1,2-benzisothiazol-5-yl]-1-methyl-6-(trifluoromethyl)uracil] | 0.0 | 0.0 | 2.0 | 0.0 | 0.0 | 0.0 | 4.5 | 9.0 | 0.5 | 2.0 | 4.0 | 3.5 | 3.5 | 0.5 | 2.5 | 6.0 | 9.0 | 9.0 | 7.0 | 9.0 | CASOB herbicidal rating ([8]; rate 0.0320 kg/ha): 5.0; CASOB herbicidal rating ([8]; rate 0.0620 kg/ha): 5.0; herbicidal rating, ECHORC ([9]; rate 0.0080 kg/ha): 1.0; herbicidal rating, ECHORC ([9]; rate 0.0320 kg/ha): 4.0; herbicidal rating, ECHORC ([9]; rate 0.1250 kg/ha): 8.0; herbicidal rating, SAGPY ([10]; rate 0.0080 kg/ha): 0.0; herbicidal rating, SAGPY ([10]; rate 0.0320 kg/ha): 4.5; herbicidal rating, SAGPY ([10]; rate 0.1250 kg/ha): 7.0; Preemergence herbicidal rating GLXMAW ([11]; Rate 0.0620 kg/ha): 0.5; Preemergence herbicidal rating GLXMAW ([11]; Rate 0.1250 kg/ha): 0.5; Preemergence herbicidal rating GLXMAW ([11]; Rate 0.2500 kg/ha): 6.0; ZEAMX herbicidal rating (ZEAMX (Corn, Field); rate 0.0320 kg/ha): 3.5; ZEAMX herbicidal rating (ZEAMX (Corn, Field); rate 0.0620 kg/ha): 5.5
